{"source": "patent US8822530B2", "about": "“Sulfur derivatives as chemokine receptor modulators” (Allergan, Inc., priority 2010, dated 2014)", "data": [{"molecular_target": "T1, CCR2 receptor (Homo sapiens, UniProt P41597)", "T1 construct": "expressed in transfected cells", "T1 sequence (P41597 whole entry)": "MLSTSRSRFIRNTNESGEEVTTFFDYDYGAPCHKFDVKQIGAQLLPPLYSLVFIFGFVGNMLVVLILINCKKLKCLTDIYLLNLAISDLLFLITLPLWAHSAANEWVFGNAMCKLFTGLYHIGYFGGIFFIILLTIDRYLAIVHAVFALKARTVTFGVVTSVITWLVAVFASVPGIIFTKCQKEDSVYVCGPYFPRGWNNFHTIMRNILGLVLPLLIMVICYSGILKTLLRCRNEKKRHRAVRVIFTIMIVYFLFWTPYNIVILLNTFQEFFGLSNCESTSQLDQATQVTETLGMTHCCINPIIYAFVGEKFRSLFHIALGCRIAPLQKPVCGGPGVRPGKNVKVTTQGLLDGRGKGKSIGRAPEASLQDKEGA", "test": "Calcium activity assay on FLIPR Tetra in HEK-Gqi5 cells stably expressing CCR2", "type": "cell-based", "procedure": "HEK-Gqi5 cells stably expressing CCR2 were cultured in DMEM high glucose, 10% FBS, 1% PSA, 400 μg/ml geneticin and 50 μg/ml hygromycin. Appropriate positive control chemokines (MCP-1, MIP1A or RANTES) was used as the positive control agonist for screening compound-induced calcium activity assayed on the FLIPR^Tetra. The drug plates were prepared in 384-well microplates using the EP3 and the MultiPROBE robotic liquid handling systems. Compounds were synthesized and tested for CCR2 activity.", "units": {"CCR2 % ANTAGONISM": "%", "IC50": "µM"}, "values": [{"smiles": "CC(=O)Nc1cccc(CS(=O)(=O)c2ccc(Cl)cc2NS(=O)(=O)c2cc3ccccc3o2)c1", "note": "[N-{3-[({2-[(1-benzofuran-2-ylsulfonyl)amino]-4-chlorophenyl}sulfonyl)methyl]phenyl}acetamide]", "CCR2 % ANTAGONISM": 100, "IC50": 0.854}, {"smiles": "COC(=O)c1ccccc1CSc1ccc(Cl)cc1NS(=O)(=O)c1ccc(Cl)c(C(F)(F)F)c1", "note": "[methyl 2-({[4-chloro-2-({[4-chloro-3-(trifluoromethyl)phenyl]sulfonyl}amino)phenyl]sulfanyl}methyl)benzoate]", "CCR2 % ANTAGONISM": 88, "IC50": 2.38}, {"smiles": "COC(=O)c1ccccc1C[S+]([O-])c1ccc(Cl)cc1NS(=O)(=O)c1ccc(Cl)c(C(F)(F)F)c1", "note": "(stereo not shown) [methyl 2-({[4-chloro-2-({[4-chloro-3-(trifluoromethyl)phenyl]sulfonyl}amino)phenyl]sulfinyl}methyl)benzoate]", "CCR2 % ANTAGONISM": 101, "IC50": 0.274}, {"smiles": "COC(=O)c1ccccc1CS(=O)(=O)c1ccc(Cl)cc1NS(=O)(=O)c1ccc(Cl)c(C(F)(F)F)c1", "note": "[methyl 2-({[4-chloro-2-({[4-chloro-3-(trifluoromethyl)phenyl]sulfonyl}amino)phenyl]sulfonyl}methyl)benzoate]", "CCR2 % ANTAGONISM": 82, "IC50": 0.515}, {"smiles": "COC(=O)c1ccccc1CSc1ccc(F)cc1NS(=O)(=O)c1cc2ccccc2o1", "note": "[methyl 2-[({2-[(1-benzofuran-2-ylsulfonyl)amino]-4-fluorophenyl}sulfanyl)methyl]benzoate]", "CCR2 % ANTAGONISM": 93, "IC50": 0.272}, {"smiles": "COC(=O)c1ccccc1C[S+]([O-])c1ccc(F)cc1NS(=O)(=O)c1cc2ccccc2o1", "note": "(stereo not shown) [methyl 2-[({2-[(1-benzofuran-2-ylsulfonyl)amino]-4-fluorophenyl}sulfinyl)methyl]benzoate]", "CCR2 % ANTAGONISM": 91, "IC50": 0.14}, {"smiles": "COC(=O)c1ccccc1CS(=O)(=O)c1ccc(F)cc1NS(=O)(=O)c1cc2ccccc2o1", "note": "[methyl 2-[({2-[(1-benzofuran-2-ylsulfonyl)amino]-4-fluorophenyl}sulfonyl)methyl]benzoate]", "CCR2 % ANTAGONISM": 90, "IC50": 0.041}, {"smiles": "COC(=O)CCSc1ccc(Cl)cc1NS(=O)(=O)c1cc2ccccc2o1", "note": "[methyl 3-({2-[(1-benzofuran-2-ylsulfonyl)amino]-4-chlorophenyl}sulfanyl)propanoate]", "CCR2 % ANTAGONISM": 91, "IC50": 0.864}, {"smiles": "COC(=O)CC[S+]([O-])c1ccc(Cl)cc1NS(=O)(=O)c1cc2ccccc2o1", "note": "(stereo not shown) [methyl 3-({2-[(1-benzofuran-2-ylsulfonyl)amino]-4-chlorophenyl}sulfinyl)propanoate]", "CCR2 % ANTAGONISM": 99, "IC50": 0.217}, {"smiles": "COC(=O)CCS(=O)(=O)c1ccc(Cl)cc1NS(=O)(=O)c1cc2ccccc2o1", "note": "[methyl 3-({2-[(1-benzofuran-2-ylsulfonyl)amino]-4-chlorophenyl}sulfonyl)propanoate]", "CCR2 % ANTAGONISM": 96, "IC50": 0.225}, {"smiles": "COC(=O)c1cccc(CSc2ccc(Cl)cc2NS(=O)(=O)c2ccc(Cl)c(C(F)(F)F)c2)c1", "note": "[methyl 3-({[4-chloro-2-({[4-chloro-3-(trifluoromethyl)phenyl]sulfonyl}amino)phenyl]sulfanyl}methyl)benzoate]", "CCR2 % ANTAGONISM": 57, "IC50": 1.36}, {"smiles": "COC(=O)c1cccc(C[S+]([O-])c2ccc(Cl)cc2NS(=O)(=O)c2ccc(Cl)c(C(F)(F)F)c2)c1", "note": "(stereo not shown) [methyl 3-({[4-chloro-2-({[4-chloro-3-(trifluoromethyl)phenyl]sulfonyl}amino)phenyl]sulfinyl}methyl)benzoate]", "CCR2 % ANTAGONISM": 93, "IC50": 3.11}, {"smiles": "COC(=O)c1cccc(CS(=O)(=O)c2ccc(Cl)cc2NS(=O)(=O)c2ccc(Cl)c(C(F)(F)F)c2)c1", "note": "[methyl 3-({[4-chloro-2-({[4-chloro-3-(trifluoromethyl)phenyl]sulfonyl}amino)phenyl]sulfonyl}methyl)benzoate]", "CCR2 % ANTAGONISM": 55, "IC50": 2.97}, {"smiles": "COC(=O)CCSc1ccc(Cl)cc1NS(=O)(=O)c1ccc(Cl)cc1F", "note": "[methyl 3-[(4-chloro-2-{[(4-chloro-2-fluorophenyl)sulfonyl]amino}phenyl)sulfanyl]propanoate]", "CCR2 % ANTAGONISM": 79, "IC50": 0.995}, {"smiles": "COC(=O)CC[S+]([O-])c1ccc(Cl)cc1NS(=O)(=O)c1ccc(Cl)cc1F", "note": "(stereo not shown) [methyl 3-[(4-chloro-2-{[(4-chloro-2-fluorophenyl)sulfonyl]amino}phenyl)sulfinyl]propanoate]", "CCR2 % ANTAGONISM": 93, "IC50": 0.098}, {"smiles": "COC(=O)CCS(=O)(=O)c1ccc(Cl)cc1NS(=O)(=O)c1ccc(Cl)cc1F", "note": "[methyl 3-[(4-chloro-2-{[(4-chloro-2-fluorophenyl)sulfonyl]amino}phenyl)sulfonyl]propanoate]", "CCR2 % ANTAGONISM": 82, "IC50": 0.212}, {"smiles": "CC(C)(C)OC(=O)CNC(=O)c1ccc(CSc2ccc(Cl)cc2NS(=O)(=O)c2ccc(Cl)c(C(F)(F)F)c2)cc1", "note": "[tert-butyl ({[4-({[4-chloro-2-({[4-chloro-3-(trifluoromethyl)phenyl]sulfonyl}amino)phenyl]sulfanyl}methyl)phenyl]carbonyl}amino)acetate]", "CCR2 % ANTAGONISM": 43, "IC50": 0.657}, {"smiles": "CC(C)(C)OC(=O)CNC(=O)c1ccc(C[S+]([O-])c2ccc(Cl)cc2NS(=O)(=O)c2ccc(Cl)c(C(F)(F)F)c2)cc1", "note": "(stereo not shown) [tert-butyl ({[4-({[4-chloro-2-({[4-chloro-3-(trifluoromethyl)phenyl]sulfonyl}amino)phenyl]sulfinyl}methyl)phenyl]carbonyl}amino)acetate]", "CCR2 % ANTAGONISM": 93}, {"smiles": "CC(C)(C)OC(=O)CNC(=O)c1ccc(CS(=O)(=O)c2ccc(Cl)cc2NS(=O)(=O)c2ccc(Cl)c(C(F)(F)F)c2)cc1", "note": "[tert-butyl ({[4-({[4-chloro-2-({[4-chloro-3-(trifluoromethyl)phenyl]sulfonyl}amino)phenyl]sulfonyl}methyl)phenyl]carbonyl}amino)acetate]", "CCR2 % ANTAGONISM": 77, "IC50": 2.66}]}]}
